These results are taken from patent US20220145092A1, “BIT COMPOSITIONS WITH SIGNIFICANTLY IMPROVED ACTIVITY” (Troy Technology II, Inc., priority 2020, published 2022).

In this test the test system is Pseudomonas aeruginosa (ATCC 10145). As to the kind of experiment: MIC by microbroth dilution and synergy index, Pseudomonas aeruginosa. The test is classed as cell-based. As to conditions: product level. As to the method:
MICs were determined via microbroth dilution using the following specific test parameters:
Necessary organism dilutions via OD600 were calculated based on OD600 of 1.0 being equivalent to 8*10^8 CFU/mL. Biocide dilutions were performed in 2-fold increments for each assay.
Synergy index (SI) scores were calculated according to the mass action equation below:
S.I.=[MIC[A] in-blend/MIC[A] alone]+[MIC[B] in-blend/MIC[B] alone]
Combinations of ingredients were determined to be synergistic (S.I.≤0.5), additive (S.I.>0.5 to 1), indifferent (S.I.>1 to <2) or antagonistic (S.I.≥2), as defined by EUCAST guidelines^1. 1 European Committee for Antimicrobial Susceptibility Testing (EUCAST) of the European Society of Clinical Microbiology and Infectious Diseases (ESCMID). EUCAST Definitive Document E.Def 1.2, May 2000: Terminology relating to methods for the determination of susceptibility of bacteria to antimicrobial agents. Clin. Microbiol. Infect. Off. Publ. Eur. Soc. Clin. Microbiol. Infect. Dis. 6, 503-508 (2000).
MIC values for Mergal BIT20X (20% BIT), individual amines, and 1:1 mixtures of amines and Mergal BIT20X were determined against the test organism Pseudomonas aeruginosa (ATCC 10145) using 96-well microbroth dilution methodology.
Synergy of Jeffamine T403 and Mergal BIT20X mixtures from 1:50 to 50:1 were tested against P. aeruginosa. Jeffamine T403 was diluted to 20% w/w before mixing with Mergal BIT20X at the indicated ratios. The results are plotted in FIG. 1. Jeffamine T403 and Mergal BIT20X are synergistic at ratios with excess T403. In FIG. 1, the x-axis indicates the fractional BIT level in the blend (1=100% BIT, 0=100% T403, 0.5=50% BIT, 50% T403, etc.), the left y-axis is the MIC against Pseudomonas aeruginosa (ATCC 10145), and the right y-axis is the calculated Synergy Index (SI). The dotted line indicates the synergy index cutoff as defined by EUCAST guidelines (SI<0.5). The MIC raw data is presented in Table 3; MIC values are reported on active concentration.
Background: Broth dilution looks for growth in wells or tubes with falling amounts of substance.

Regarding `CC(CN)CCCN` (stereo not drawn) [Dytek A], the “MIC, Amine Only, Avg.” value turned out to be 2500 ppm; the “MIC, Amine Only, Rep. 1” value is on record as 2500 ppm; the “MIC, Amine Only, Rep.2” value was found to be 2500 ppm.

As for `NCCNCCNCCN` [TETA], the “MIC, Amine Only, Avg.” value is 938 ppm; the “MIC, Amine Only, Rep. 1” value is recorded as 625 ppm; the “MIC, Amine Only, Rep.2” value was found to be 1250 ppm.
